Reference: ChEMBL document CHEMBL1201862, “PubChem BioAssay data set” (2004)
Activity calls are given as the source filed them.

Experiments:
[1] = target: T1, Short transient receptor potential channel 4 (Mus musculus, UniProt Q9QUQ5); experiment: potentiation of DAMGO-evoked TRPC4 calcium signal – cell-based, HEK293 TRPC4/mu-opioid, Fluo-4 calcium, EC20 DAMGO, dose response (AID 434941); assay type: functional
T1 sequence (Q9QUQ5 whole entry): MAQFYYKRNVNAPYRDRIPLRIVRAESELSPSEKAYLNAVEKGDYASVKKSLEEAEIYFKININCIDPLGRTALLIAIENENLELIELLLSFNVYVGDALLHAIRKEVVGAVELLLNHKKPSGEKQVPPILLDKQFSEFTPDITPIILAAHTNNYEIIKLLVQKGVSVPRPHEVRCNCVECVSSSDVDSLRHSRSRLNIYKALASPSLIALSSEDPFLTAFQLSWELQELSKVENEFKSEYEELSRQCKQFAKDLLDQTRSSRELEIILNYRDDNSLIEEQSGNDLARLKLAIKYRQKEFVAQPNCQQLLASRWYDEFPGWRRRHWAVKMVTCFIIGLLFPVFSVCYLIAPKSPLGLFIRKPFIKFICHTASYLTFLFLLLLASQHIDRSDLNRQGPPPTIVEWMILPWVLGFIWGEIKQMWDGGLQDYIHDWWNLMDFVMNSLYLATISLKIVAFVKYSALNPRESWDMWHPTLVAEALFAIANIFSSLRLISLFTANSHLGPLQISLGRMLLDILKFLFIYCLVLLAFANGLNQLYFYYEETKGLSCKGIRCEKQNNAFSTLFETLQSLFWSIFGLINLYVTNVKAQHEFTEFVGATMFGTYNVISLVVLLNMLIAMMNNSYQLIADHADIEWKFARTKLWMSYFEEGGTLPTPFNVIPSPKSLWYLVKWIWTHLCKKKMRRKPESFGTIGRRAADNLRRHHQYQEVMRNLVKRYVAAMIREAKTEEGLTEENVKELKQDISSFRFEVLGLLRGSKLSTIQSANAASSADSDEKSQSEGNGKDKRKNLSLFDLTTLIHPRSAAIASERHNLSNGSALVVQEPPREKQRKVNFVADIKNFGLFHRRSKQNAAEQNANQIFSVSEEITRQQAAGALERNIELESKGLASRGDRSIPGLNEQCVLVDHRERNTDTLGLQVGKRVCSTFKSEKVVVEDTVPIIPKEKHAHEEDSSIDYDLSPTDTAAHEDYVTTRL

[2] = target: NACHT, LRR and PYD domains-containing protein 3 (Homo sapiens, UniProt Q96P20); experiment: NALP3 inhibitors in yeast, dose response, luminescent (AID 488799); assay type: functional
Sequence of NACHT, LRR and PYD domains-containing protein 3 (Q96P20 whole entry, the tested form may be a part): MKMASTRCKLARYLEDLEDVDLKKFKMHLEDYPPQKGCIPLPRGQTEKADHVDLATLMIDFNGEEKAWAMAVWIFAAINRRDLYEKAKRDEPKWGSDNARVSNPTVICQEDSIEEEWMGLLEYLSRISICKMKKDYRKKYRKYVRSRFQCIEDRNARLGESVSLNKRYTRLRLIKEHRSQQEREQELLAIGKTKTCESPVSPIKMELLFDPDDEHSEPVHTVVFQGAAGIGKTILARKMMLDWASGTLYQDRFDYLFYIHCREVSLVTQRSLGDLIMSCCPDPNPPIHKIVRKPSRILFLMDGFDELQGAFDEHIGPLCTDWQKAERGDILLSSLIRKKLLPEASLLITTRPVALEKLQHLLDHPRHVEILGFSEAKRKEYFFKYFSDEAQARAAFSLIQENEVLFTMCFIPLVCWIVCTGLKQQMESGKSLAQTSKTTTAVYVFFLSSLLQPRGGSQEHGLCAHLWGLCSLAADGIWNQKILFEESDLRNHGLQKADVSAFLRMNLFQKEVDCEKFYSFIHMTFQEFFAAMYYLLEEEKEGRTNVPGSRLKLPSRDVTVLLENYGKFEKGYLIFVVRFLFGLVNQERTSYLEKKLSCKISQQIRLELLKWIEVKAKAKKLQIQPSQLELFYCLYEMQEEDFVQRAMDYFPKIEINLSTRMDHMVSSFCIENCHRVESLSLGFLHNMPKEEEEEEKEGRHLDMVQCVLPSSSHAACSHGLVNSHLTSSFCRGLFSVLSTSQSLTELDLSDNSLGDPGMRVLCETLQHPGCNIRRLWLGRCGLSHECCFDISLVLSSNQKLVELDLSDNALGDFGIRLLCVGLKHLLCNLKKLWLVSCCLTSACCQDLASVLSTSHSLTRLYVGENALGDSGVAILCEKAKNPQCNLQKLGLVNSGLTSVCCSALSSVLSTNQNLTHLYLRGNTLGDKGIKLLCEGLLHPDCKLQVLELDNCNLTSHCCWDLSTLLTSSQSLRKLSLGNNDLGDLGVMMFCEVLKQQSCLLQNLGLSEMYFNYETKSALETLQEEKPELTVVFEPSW

[3] = A Cell Based Secondary Assay To Explore Cytotoxicity of Compounds that Sensitize Mycobacterium Tuberculosis to Beta-Lactam Antibiotics.; assay type: functional
[4] = target: Eukaryotic translation initiation factor 4H (Homo sapiens, UniProt Q15056); experiment: inhibitors of translation initiation factor eIF4H – SAR follow-up (AID 435011); assay type: functional
[5] = target: Polyadenylate-binding protein 1 (Homo sapiens, UniProt P11940); experiment: PABP inhibition in translation initiation, SAR follow-up (AID 435018); assay type: functional
Sequence of Polyadenylate-binding protein 1 (P11940 whole entry): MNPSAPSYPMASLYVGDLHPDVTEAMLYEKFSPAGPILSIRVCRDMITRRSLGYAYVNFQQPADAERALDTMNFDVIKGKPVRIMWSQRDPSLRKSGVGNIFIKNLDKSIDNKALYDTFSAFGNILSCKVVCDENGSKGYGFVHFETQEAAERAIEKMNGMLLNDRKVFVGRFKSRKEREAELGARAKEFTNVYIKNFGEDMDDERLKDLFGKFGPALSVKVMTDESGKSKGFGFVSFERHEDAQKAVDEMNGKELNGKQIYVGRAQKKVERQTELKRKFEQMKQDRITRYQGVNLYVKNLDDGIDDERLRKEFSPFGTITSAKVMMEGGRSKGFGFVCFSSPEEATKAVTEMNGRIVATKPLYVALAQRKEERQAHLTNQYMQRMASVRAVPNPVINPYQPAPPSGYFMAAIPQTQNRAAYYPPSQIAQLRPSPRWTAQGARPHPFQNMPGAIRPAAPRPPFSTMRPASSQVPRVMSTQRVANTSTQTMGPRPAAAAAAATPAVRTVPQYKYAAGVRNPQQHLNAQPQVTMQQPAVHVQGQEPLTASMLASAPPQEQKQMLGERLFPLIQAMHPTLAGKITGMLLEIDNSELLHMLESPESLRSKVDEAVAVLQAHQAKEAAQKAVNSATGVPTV

[6] = test system: Streptococcus sp. 'group A'; experiment: Streptococcus pyogenes SK(-)GAS viability under kanamycin – luminescence, BacTiterGlo, confirmation, counter-screen for streptokinase expression inhibitor project, dose response (AID 1900); assay type: functional, organism-based
Streptokinase A = target: T2, Streptokinase A (Streptococcus pyogenes serotype M1, UniProt P10520); experiment: viability-normalized secreted streptokinase activity reduction – plasminogen activation absorbance, OD405, dose response (AID 1914); assay type: functional, Streptococcus pyogenes M1 GAS;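 further: secreted streptokinase activity via plasminogen activation per viability signal from cell pellet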
T2 sequence (P10520 whole entry): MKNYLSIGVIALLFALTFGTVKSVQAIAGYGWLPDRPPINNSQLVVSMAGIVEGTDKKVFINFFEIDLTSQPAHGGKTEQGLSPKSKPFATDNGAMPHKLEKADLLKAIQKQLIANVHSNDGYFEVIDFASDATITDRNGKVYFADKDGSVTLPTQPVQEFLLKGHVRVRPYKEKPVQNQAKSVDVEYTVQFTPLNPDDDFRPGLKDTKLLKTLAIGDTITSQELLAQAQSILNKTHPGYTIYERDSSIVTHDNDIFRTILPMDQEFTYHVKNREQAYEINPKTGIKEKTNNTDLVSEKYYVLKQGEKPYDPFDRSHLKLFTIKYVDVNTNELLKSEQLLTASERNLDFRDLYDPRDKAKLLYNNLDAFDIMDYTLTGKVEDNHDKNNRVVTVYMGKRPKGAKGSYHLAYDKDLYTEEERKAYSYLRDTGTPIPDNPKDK

Streptococcus = experiment: GAS UMAA2166 growth inhibition – luminescence, BacTiterGlo, counter-screen for streptokinase expression inhibitor project, dose response (AID 1915); assay type: functional, organism-based;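 further: potency for reduction of bacterial viability or growth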
[7] = THP-1 cell cytotoxicity, dose response, cytotoxicity control for non-replicating M. tuberculosis project (AID 489025); assay type: functional
[8] = HepG2 cell cytotoxicity, dose response, cytotoxicity control for non-replicating M. tuberculosis project (AID 489018); assay type: functional; details: Mycobacterium tuberculosis
[9] = Vero E6 cell cytotoxicity, dose response, cytotoxicity control for non-replicating M. tuberculosis project, secondary assay (AID 492998); assay type: functional, VeroE6; details: Vero C1008
cells = assay type: functional
INS1 = experiment: INS-1E survival protection against cytokine death – cell-based, luminescence, retest, dose response (AID 449756); assay type: functional; details: Rattus norvegicus;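 further: cell death triggered by IL-1 beta plus TNF-alpha plus IFN-gamma mixture; protective hits raise ATP signal compared with cytokine alone wells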
[10] = microbe, parasite or virus in culture; assay type: functional; details: Mycobacterium tuberculosis
Nonstructural protein 1 = Nonstructural protein 1 (Influenza A virus, UniProt Q194T2); assay type: functional, Influenza A virus (A/California/07/2009(H1N1))
Sequence of Nonstructural protein 1 (Q194T2 whole entry): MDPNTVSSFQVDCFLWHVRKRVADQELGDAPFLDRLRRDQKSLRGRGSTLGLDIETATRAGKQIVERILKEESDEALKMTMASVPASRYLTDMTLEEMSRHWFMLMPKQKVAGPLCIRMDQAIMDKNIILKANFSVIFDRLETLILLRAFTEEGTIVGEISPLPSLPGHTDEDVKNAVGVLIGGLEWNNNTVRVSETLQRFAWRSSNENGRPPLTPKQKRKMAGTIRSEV

[11] = target: T3, Luciferin 4-monooxygenase (Photinus pyralis, UniProt P08659); experiment: Counter Screen for Luciferase-based Assay Positives. [Related pubchem assays: 620, 618, 411 ]
T3 sequence (P08659 whole entry): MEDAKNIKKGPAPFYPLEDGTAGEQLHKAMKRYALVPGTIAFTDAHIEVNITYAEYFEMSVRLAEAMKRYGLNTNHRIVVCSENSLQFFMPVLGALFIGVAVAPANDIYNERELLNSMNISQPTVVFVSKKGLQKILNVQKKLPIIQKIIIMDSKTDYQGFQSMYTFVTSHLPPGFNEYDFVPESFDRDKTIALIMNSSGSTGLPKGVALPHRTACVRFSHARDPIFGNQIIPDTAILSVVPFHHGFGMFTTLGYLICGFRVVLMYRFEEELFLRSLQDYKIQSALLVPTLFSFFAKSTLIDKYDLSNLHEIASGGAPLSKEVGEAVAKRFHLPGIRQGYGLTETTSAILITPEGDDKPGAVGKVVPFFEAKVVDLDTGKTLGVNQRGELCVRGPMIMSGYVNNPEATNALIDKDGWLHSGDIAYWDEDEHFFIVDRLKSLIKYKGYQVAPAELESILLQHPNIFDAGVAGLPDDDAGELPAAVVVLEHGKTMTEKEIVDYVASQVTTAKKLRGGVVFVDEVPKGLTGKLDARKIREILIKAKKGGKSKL

[12] = target: T3, Luciferin 4-monooxygenase; experiment: inhibition of purified Photinus pyralis luciferase – biochemical, luminescence, dose response (AID 1891)
[13] = Luminescence Cell-Based Dose Confirmation HTS to Identify Inhibitors of Platelet Dense Granule Release. [Related pubchem assays: 1663 (Primary HTS), 1678 (Summary of Project)]; assay type: functional
HT-1080 = experiment: HT1080 cell viability loss – fluorescence readout (AID 620); assay type: functional, cell-based; details: Homo sapiens
[14] = target: T1, Short transient receptor potential channel 4; experiment: calcium entry via TRPC4 opening agents – cell-based, HEK293 TRPC4/mu-opioid, Fluo-4 calcium, dose response (AID 434937); assay type: functional
Vero = experiment: cells; assay type: functional; details: Chlorocebus sabaeus

SMILES: CN(C)CCNc1ccc(Cl)cc1[N+](=O)[O-]
- EC50 [1]: 0.01 µM (active)

SMILES: CCC1Nc2ncnc(N3CCN(c4ccccn4)CC3)c2N(Cc2ccc(Cl)cc2)C1=O (stereo not given)
- IC50 [2]: 3.16 µM (active)

SMILES: OCCCn1c(C2CCCN2c2nc(-c3ccc(Cl)cc3)cs2)nc2cc(Cl)c(Cl)cc21 (stereo not given)
- CC50 [3]: > 40 µM (active)

SMILES: Cc1ccc(C)c(NC(=O)C2CCN(C(=O)c3cccs3)CC2)c1
- IC50 [4]: > 100 µM (inactive)
- IC50 [5]: > 100 µM (inactive)

SMILES: COc1cc([N+](=O)[O-])ccc1NC(=O)COC(=O)c1ccc(N2CCCC2=O)cc1
- IC50 [4]: > 100 µM (inactive)
- IC50 [5]: > 100 µM (inactive)

SMILES: O=C(Nc1ccc(Br)cc1)C1CCCN1C(=O)Oc1ccccc1 (stereo not given)
- IC50 [4]: > 100 µM (inactive)
- IC50 [5]: > 100 µM (inactive)

SMILES: COc1ccccc1/C=N\Nc1cc(C)nc(-n2nc(C)cc2C)n1
- EC50 [6]: 7.45 µM (active)
- EC50 (Streptokinase A): > 150 µM (not active)
- EC50 (Streptococcus): 16.1 µM (active)
- CC50 [7]: 5.71 µM (active)
- CC50 [8]: 18.3 µM (active)
- CC50 [9]: 7.06 µM (active)
- IC50 (cells): < 0.1 µM (active)
- AC50 (INS1): 2.92 µM (active)

SMILES: C=CCc1c(C)nc(C)nc1N/N=C/c1ccccc1O
- CC50 [10]: > 40 µM (active)
- IC50 [2]: 45.5 µM (active)
- IC50 (Nonstructural protein 1): 18.4 µM (active)

SMILES: COc1ccc(C(=O)/C=C/Nc2cccc(O)c2)cc1
- EC50 [11]: 0.25 µM (active)
- EC50 [12]: 0.793 µM (active)
- EC50 [13]: 5.26 µM (active)
- EC50 (HT-1080): > 50 µM (not active)

SMILES: Cc1nc(N/C(N)=N/C(=O)NC2CCCCC2)nc2ccccc12
- CC50 [7]: 16.9 µM (active)
- CC50 [8]: 17.7 µM (active)
- CC50 [9]: 13.3 µM (active)
- EC50 [14]: 0.0667 µM (active)
- IC50 (cells): 3.25 µM (active)
- CC50 (Vero): 19.2 µM (active)
